From ChEMBL document CHEMBL1201862, “PubChem BioAssay data set” (2004)
Values belong to the compound of their own block, whether it stands above or below them. Calls of active or inactive are those of the source.

Legend:
[1] = biological target: Cytochrome P450 2D6 (Homo sapiens, UniProt P10635);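 further: CYP2D6 member of a cytochrome P450 panel assay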
[2] = biological target: T1, Short transient receptor potential channel 4 (Mus musculus, UniProt Q9QUQ5); test: mouse TRPC4 channel activators, dose response, cell-based, HEK293 TRPC4/mu-opioid, Fluo-4 calcium (AID 434937); type: functional
T1 sequence (Q9QUQ5 whole entry): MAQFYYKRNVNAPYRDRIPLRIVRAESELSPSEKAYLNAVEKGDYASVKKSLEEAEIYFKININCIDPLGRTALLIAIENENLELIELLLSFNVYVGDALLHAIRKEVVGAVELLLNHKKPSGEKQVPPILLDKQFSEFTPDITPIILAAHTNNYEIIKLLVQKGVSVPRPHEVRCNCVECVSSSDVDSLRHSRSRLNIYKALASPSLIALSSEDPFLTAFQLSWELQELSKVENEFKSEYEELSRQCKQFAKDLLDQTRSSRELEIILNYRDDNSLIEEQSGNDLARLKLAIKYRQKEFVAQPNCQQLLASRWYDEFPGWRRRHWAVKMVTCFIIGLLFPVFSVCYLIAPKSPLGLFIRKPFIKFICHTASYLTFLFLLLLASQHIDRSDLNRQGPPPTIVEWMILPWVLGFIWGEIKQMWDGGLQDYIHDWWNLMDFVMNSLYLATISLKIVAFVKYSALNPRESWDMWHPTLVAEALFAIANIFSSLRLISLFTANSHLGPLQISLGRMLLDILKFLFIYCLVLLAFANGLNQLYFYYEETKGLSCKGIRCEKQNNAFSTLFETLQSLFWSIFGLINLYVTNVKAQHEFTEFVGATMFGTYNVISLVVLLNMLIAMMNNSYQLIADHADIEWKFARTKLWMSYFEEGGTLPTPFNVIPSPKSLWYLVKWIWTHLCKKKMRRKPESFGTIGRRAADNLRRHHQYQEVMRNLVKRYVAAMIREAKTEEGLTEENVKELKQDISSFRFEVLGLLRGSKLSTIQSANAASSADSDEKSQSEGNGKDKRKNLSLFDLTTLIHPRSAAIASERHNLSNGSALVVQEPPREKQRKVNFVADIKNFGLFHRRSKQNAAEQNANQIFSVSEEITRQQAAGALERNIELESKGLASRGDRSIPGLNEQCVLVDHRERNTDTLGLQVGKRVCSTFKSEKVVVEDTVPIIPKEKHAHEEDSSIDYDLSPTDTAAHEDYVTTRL

[3] = biological target: Cytochrome P450 2C19 (Homo sapiens, UniProt P33261); test: Cytochrome panel assay with activity outcomes. Panel member name: p450-cyp2c19 Compounds with AC50 equal or less than 10 uM are considered active; type: functional; conditions: read-out: AC50
Chain of Cytochrome P450 2C19 (P33261 whole entry): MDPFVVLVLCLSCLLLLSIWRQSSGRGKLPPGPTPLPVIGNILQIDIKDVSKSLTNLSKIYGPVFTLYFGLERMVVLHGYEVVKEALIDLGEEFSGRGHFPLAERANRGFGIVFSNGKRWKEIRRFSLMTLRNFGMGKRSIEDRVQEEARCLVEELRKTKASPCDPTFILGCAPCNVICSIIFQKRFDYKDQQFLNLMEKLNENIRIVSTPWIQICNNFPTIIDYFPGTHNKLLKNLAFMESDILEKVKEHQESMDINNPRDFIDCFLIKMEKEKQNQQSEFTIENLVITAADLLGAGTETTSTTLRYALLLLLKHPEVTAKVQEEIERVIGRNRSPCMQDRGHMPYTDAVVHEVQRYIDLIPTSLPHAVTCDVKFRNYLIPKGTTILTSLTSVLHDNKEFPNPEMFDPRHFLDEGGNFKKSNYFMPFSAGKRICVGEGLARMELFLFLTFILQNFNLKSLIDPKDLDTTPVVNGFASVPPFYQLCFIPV

[4] = biological target: T1, Short transient receptor potential channel 4; test: TRPC4 positive allosteric modulators, dose response, cell-based, HEK293 TRPC4/mu-opioid, Fluo-4 calcium, EC20 DAMGO (AID 434941); type: functional
[5] = biological target: T2, Tyrosine-protein phosphatase non-receptor type 7 (Homo sapiens, UniProt P35236); test: HePTP (PTPN7) phosphatase inhibitor potency, SAR follow-up, biochemical, set 2 (AID 449736); type: functional
T2 sequence (P35236 whole entry): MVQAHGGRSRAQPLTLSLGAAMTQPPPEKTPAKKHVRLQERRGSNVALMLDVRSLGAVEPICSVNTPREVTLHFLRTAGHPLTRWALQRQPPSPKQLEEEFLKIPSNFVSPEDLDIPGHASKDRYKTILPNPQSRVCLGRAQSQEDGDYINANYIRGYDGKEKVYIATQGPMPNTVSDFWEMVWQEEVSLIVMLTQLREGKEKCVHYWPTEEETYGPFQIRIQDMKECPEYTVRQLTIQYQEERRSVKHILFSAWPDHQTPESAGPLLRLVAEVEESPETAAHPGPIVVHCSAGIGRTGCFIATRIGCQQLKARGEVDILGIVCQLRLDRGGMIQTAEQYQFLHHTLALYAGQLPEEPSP

[6] = biological target: Protein phosphatase methylesterase 1 (Homo sapiens, UniProt Q9Y570); test: PME-1 inhibitor potency by in-gel ABPP, dose response, selectivity assay for PME-1 inhibitor project, cell lysate, mouse brain cytosol, FP-rhodamine, panel member PME-1 Assay Panel member description: Inhibition of endogenously expressed PME-1 (AID 2366)
Chain of Protein phosphatase methylesterase 1 (Q9Y570 whole entry): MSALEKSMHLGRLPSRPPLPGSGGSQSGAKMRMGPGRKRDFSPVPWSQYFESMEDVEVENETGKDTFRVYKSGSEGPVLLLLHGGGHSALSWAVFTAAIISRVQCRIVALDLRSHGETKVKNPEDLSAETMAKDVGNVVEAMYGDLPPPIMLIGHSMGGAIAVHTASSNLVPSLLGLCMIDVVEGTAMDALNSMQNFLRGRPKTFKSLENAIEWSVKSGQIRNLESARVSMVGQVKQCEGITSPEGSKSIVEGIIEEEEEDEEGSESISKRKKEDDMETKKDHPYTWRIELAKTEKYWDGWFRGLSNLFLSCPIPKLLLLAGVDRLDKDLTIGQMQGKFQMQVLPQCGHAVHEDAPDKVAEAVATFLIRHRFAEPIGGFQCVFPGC

[7] = biological target: T3, Caspase-3 (Homo sapiens, UniProt P42574); test: procaspase-3 activation potency of dual hits, dose response, counter-screen for dual procaspase-3/7 activator project, biochemical, absorbance, PC-3 D3A mutant (AID 504328)
T3 sequence (P42574 whole entry): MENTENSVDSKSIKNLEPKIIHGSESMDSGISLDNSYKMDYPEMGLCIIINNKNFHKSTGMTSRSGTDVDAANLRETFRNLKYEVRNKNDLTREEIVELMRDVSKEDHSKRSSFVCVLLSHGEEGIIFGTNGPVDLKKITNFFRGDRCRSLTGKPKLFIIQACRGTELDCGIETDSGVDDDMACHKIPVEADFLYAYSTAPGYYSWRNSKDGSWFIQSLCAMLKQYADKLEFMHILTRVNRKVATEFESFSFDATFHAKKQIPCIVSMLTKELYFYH

[8] = biological target: Caspase-7 (Homo sapiens, UniProt P55210); test: procaspase-7 activators, dose response, dual procaspase-3/-7 activator project, biochemical, absorbance, human (AID 504330)
[9] = biological target: Perilipin-1/ABHD5 (Homo sapiens, UniProt O60240+Q8WTS1); test: Luminescence-based biochemical high throughput dose response assay for inhibitors of the interaction of the lipase co-activator protein, abhydrolase domain containing 5 (ABHD5) with perilipin-1 (PLIN1) (2K validation set). [Related pubchem assays (depositor defined):AID493027, AID493057]
Chain of Perilipin-1/ABHD5 (Q8WTS1 whole entry, the tested form may be a part): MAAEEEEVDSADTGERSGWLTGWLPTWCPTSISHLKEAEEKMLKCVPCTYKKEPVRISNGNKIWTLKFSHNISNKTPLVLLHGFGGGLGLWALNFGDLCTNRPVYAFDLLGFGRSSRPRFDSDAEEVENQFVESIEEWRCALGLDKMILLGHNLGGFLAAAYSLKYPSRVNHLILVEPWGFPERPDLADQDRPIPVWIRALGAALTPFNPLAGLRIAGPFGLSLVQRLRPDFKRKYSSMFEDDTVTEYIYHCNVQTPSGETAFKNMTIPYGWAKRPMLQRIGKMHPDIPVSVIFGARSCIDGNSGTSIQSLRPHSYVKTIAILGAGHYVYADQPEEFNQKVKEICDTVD
Chain of Perilipin-1/ABHD5 (O60240 whole entry, the tested form may be a part): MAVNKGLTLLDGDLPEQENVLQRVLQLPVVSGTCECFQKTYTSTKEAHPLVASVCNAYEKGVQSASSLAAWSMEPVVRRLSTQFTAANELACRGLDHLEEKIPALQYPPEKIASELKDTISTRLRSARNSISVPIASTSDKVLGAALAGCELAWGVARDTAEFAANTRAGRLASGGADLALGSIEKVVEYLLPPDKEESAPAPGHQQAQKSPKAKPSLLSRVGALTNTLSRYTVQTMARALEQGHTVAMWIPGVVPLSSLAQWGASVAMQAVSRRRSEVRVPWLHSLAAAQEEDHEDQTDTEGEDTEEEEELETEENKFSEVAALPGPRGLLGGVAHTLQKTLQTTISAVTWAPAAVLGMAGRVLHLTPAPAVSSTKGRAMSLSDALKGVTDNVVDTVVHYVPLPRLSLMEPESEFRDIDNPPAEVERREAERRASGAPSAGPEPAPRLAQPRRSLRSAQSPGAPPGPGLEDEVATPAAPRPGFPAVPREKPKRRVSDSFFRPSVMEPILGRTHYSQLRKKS

[10] = biological target: 1-acylglycerol-3-phosphate O-acyltransferase ABHD5/Perilipin-5 (Homo sapiens, UniProt Q00G26+Q8WTS1); test: Luminescence-based biochemical high throughput dose response assay for inhibitors of the interaction of the lipase co-activator protein, abhydrolase domain containing 5 (ABHD5) with perilipin-5 (MLDP; PLIN5) (2K validation set). [Related pubchem assays (depositor defined):AID493035, AID493241]
Chain of 1-acylglycerol-3-phosphate O-acyltransferase ABHD5/Perilipin-5 (Q00G26 whole entry, the tested form may be a part): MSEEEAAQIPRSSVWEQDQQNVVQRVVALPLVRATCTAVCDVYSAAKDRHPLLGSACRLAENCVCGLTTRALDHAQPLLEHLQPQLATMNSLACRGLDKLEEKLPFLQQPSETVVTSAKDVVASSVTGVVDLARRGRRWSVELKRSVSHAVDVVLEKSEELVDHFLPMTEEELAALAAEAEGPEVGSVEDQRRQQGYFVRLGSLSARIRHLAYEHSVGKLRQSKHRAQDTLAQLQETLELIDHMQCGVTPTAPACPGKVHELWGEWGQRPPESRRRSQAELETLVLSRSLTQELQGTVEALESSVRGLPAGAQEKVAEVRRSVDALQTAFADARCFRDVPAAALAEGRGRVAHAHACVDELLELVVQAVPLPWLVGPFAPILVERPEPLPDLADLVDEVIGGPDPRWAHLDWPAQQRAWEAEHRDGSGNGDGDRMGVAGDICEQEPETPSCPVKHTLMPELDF
Chain of 1-acylglycerol-3-phosphate O-acyltransferase ABHD5/Perilipin-5 (Q8WTS1 whole entry, the tested form may be a part): as the sequence (Q8WTS1 whole entry, the tested form may be a part) above

[11] = biological target: Neurotensin receptor type 1 (Homo sapiens, UniProt P30989); type: functional;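 further: Image-based confirmatory dose-response assay measuring agonist activity at NTR1; NTR1-expressing U2OS osteosarcoma cells imaged for beta-arrestin GFP spot formation; agonist potency where compounds increase beta-arrestin recruitment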
Chain of Neurotensin receptor type 1 (P30989 whole entry): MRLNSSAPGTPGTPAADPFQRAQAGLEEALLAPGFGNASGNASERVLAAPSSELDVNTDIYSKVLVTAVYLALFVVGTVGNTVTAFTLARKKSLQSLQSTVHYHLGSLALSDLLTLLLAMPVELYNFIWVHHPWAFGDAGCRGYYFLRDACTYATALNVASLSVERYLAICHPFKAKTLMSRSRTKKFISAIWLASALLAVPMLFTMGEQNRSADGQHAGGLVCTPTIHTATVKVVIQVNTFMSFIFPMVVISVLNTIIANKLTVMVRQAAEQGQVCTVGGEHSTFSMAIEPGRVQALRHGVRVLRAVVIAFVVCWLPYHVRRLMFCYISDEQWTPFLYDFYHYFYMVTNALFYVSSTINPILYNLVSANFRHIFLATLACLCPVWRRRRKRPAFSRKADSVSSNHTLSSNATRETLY

Chain of Cytochrome P450 2D6 (P10635 whole entry): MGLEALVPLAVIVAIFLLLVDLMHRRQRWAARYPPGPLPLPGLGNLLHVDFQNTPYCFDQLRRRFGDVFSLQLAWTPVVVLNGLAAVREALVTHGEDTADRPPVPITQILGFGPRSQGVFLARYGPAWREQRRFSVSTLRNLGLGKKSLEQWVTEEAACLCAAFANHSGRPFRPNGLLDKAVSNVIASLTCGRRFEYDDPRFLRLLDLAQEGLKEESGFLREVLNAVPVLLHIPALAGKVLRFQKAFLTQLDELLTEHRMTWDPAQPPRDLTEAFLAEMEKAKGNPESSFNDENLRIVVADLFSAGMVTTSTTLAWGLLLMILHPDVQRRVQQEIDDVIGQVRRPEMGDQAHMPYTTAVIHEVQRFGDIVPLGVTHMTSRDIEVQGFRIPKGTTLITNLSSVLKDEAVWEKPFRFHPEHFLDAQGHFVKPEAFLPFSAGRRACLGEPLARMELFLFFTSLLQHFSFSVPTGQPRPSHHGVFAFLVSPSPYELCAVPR

SMILES: Cc1cc(OCCNCCO)cc(C)c1Cl
- AC50 [1]: 25.1 µM (inconclusive)
- EC50 [2]: 0.841 µM (active)
- AC50 [3]: 7.08 µM (inconclusive)
- EC50 [4]: 0.09 µM (active)

SMILES: Cc1ccc(NC(=O)c2sc(=S)n(-c3cc(C)ccc3F)c2N)cc1
- IC50 [5]: 87.1 µM (active)

Now from value to compound:

- IC50 [6]: 20 µM (inactive)
SMILES: N#CC(C#N)=Cc1cccn1S(=O)(=O)c1ccc(F)cc1F

- EC50 [7]: > 85.3 µM (inactive)
- EC50 [8]: > 85.3 µM (inactive)
SMILES: COc1ccc(-c2cc(C(=O)OC3CCOC3=O)c3ccccc3n2)cc1OC (stereo unspecified)

- IC50 [9]: 2.28 µM (active)
- IC50 [10]: 3.1 µM (active)
- EC50 [11]: 8.29 µM (active)
SMILES: O=C1ON=C(c2ccc(Cl)cc2)/C1=C/c1ccc(O)cc1
